Converted amounts (≈) assume the structure as drawn.
What was measured:
Format in all cases: cell-based
[1] = system: Akkermansia muciniphila EB-AMDK19; assay: MIC by broth microdilution (CLSI), isolated strain; conditions: for Susceptibility category by MIC breakpoints: test strain EB-AMDK19, breakpoints per antibiotic in c1-c3; for MIC: Akkermansia muciniphila, EBAMDK19, test strain EB-AMDK19, broth microdilution
[2] = system: Bacteroides thetiotaomicron ATCC 29741; assay: MIC by broth microdilution (CLSI), QC strain
[3] = system: Akkermansia muciniphila ATCC BAA-835; assay: MIC by broth microdilution (CLSI), type strain; conditions: for Susceptibility category by MIC breakpoints: test strain ATCC BAA-835, breakpoints per antibiotic in c1-c3; for MIC: Akkermansia muciniphila, ATCCBAA835, test strain ATCC BAA-835, broth microdilution

Compound: Piperacillin-tazobactam [PTZ]
- Susceptibility category by MIC breakpoints [1]: (S)
- MIC ([2]; QC strain ATCC 29741, broth microdilution): 8/4
- Susceptibility category by MIC breakpoints [3]: (S)

Compound: CCC[C@@H]1C[C@@H](C(=O)N[C@@H]([C@H]2O[C@H](SC)[C@H](O)[C@@H](O)[C@H]2O)[C@H](C)Cl)N(C)C1 [CLI, clindamycin]
- MIC [1]: 4 µg/mL (≈ 9.41 µM)
- Susceptibility category by MIC breakpoints [1]: (I)
- MIC [3]: ≤ 0.125 µg/mL
- Susceptibility category by MIC breakpoints [3]: (S)

Compound: CO/N=C(\C(=O)N[C@@H]1C(=O)N2C(C(=O)O)=CCS[C@H]12)c1csc(N)n1 [CTZ, ceftizoxime]
- MIC [1]: 1 µg/mL (≈ 2.61 µM)
- Susceptibility category by MIC breakpoints [1]: (S)
- MIC ([2]; Bacteroides, ATCC29741): 16 µg/mL (≈ 41.7 µM)
- MIC [3]: 2 µg/mL (≈ 5.22 µM)
- Susceptibility category by MIC breakpoints [3]: (S)

Compound: O=C(N[C@H](CO)[C@H](O)c1ccc([N+](=O)[O-])cc1)C(Cl)Cl [CHL, chloramphenicol]
- MIC [1]: 4 µg/mL (≈ 12.4 µM)
- Susceptibility category by MIC breakpoints [1]: (S)
- MIC ([2]; Bacteroides, ATCC29741): 8 µg/mL (≈ 24.8 µM)
- MIC [3]: 4 µg/mL (≈ 12.4 µM)
- Susceptibility category by MIC breakpoints [3]: (S)

Compound: C[C@@H](O)[C@H]1C(=O)N2C(C(=O)O)=C(S[C@@H]3CN[C@H](C(=O)N(C)C)C3)[C@H](C)[C@H]12 [MEM, meropenem]
- MIC [1]: 0.5 µg/mL (≈ 1.3 µM)
- Susceptibility category by MIC breakpoints [1]: (S)
- MIC ([2]; Bacteroides, ATCC29741): 0.5 µg/mL (≈ 1.3 µM)
- MIC [3]: 1 µg/mL (≈ 2.61 µM)
- Susceptibility category by MIC breakpoints [3]: (S)

Compound: Cc1ncc([N+](=O)[O-])n1CCO [MTZ, metronidazole]
- MIC [1]: 0.5 µg/mL (≈ 2.92 µM)
- Susceptibility category by MIC breakpoints [1]: (S)
- MIC ([2]; Bacteroides, ATCC29741): 2 µg/mL (≈ 11.7 µM)
- MIC [3]: ≤ 0.25 µg/mL
- Susceptibility category by MIC breakpoints [3]: (S)

Compound: COc1c(N2C[C@@H]3CCCN[C@@H]3C2)c(F)cc2c(=O)c(C(=O)O)cn(C3CC3)c12 [MXF, moxifloxacin]
- MIC [1]: > 32 µg/mL
- Susceptibility category by MIC breakpoints [1]: (R)
- MIC ([2]; Bacteroides, ATCC29741): 8 µg/mL (≈ 19.9 µM)
- MIC [3]: > 32 µg/mL
- Susceptibility category by MIC breakpoints [3]: (R)
